Experimental data published in US8691757B2 (Bristol-Myers Squibb Company, priority 2011, dated 2014).

Experiments:
[1] = tested on: HCV genotype 1a (H77 strain) replicon in HUH-7 cells; assay: HCV replicon luciferase reporter assay, genotype 1a; assay type: cell-based; details: Hepatitis C virus, 72 h, HCV genotype 1a replicon, 3 days incubation, Renilla luciferase
Description: (§1) An HCV replicon whole cell system was established as described by Lohmann V, Korner F, Koch J, Herian U, Theilmann L, Bartenschlager R., Science 285(5424):110-3 (1999) and modified to introduce a luciferase reporter, as first described by Krieger et al (Krieger N, Lohmann V, and Bartenschlager R, J. Virol. 75(10):4614-4624 (2001)). CDNA encoding a humanized form of the Renilla luciferase gene and a linker sequence fused directly to the 3′-end of the luciferase gene were introduced into the replicon construct using an Asc1 restriction site located in core, directly upstream of the neomycin marker gene. The adaptive mutation at position 1179 (serine to isoleucine) was also introduced (Blight K J, Kolykhalov, A A, Rice, C M, Science 290(5498):1972-1974). A stable cell line constitutively expressing this HCV replicon construct was generated by first linearizing plasmid DNAs with ScaI. RNA transcripts were synthesized in vitro using the T7 MegaScript transcription kit (Ambion, Austin, Tex.) according to manufacturer's directions. In vitro transcripts of the cDNA were transfected into the human hepatoma cell line, HUH-7. […] Resulting cell lines were characterized for positive and negative strand RNA production and protein production over time.
A stable HCV replicon luciferase reporter cell line representing the genotype 1a H77 strain (Yanagi M, Purcell R H, Emerson S U, et al. Transcripts from a single full-length cDNA clone of hepatitis C virus are infectious when directly transfected into the liver of a chimpanzee. Proc Natl Acad Sci USA 1997; 94(16):8738-8743) was generated as described previously for the genotype 1b (Con1) replicon luciferase cell line. The replicon construct was modified by introducing mutations were introduced into the genes encoding the NS3 helicase domain (proline replaced by leucine at position 1496) and NS5A (serine to isoleucine at position 2204) to improve replication in cell culture.
(§2) HCV replicon luciferase assays were developed to monitor the inhibitory effects of compounds described in the disclosure on HCV genotypes 1a and 1b viral replication. HUH-7 cells, constitutively expressing the HCV replicon, were grown in Dulbecco's Modified Eagle Media (DMEM) (Gibco-BRL) containing 10% Fetal calf serum (FCS) (Sigma) and 1 mg/mL G418 (Gibco-BRL). Compounds were serially diluted 3 folds in DMSO for a twenty-point titration and subsequently transferred to sterile 384-well tissue-culture treated plates (Corning cat #3571). The plates were then seeded with 50 μL of cells at a density of 3.0×10^3 cells/well in DMEM containing 4% FCS (final DMSO concentration at 0.5%). After 3 days incubation at 37° C., cells were analyzed for Renilla Luciferase activity using the EnduRen as substrate (Promega cat #E6485). The EnduRen substrate was diluted in DMEM and then added to the plates to a final concentration of 7.5 μM. The plates were incubated for 2 hrs at 37° C. and then read immediately for 30 seconds with Viewlux Imager (PerkinElmer) using a luminescence program. To assess cytotoxicity of compounds, CC50 values were generated by multiplexing the EnduRen-containing plates with Cell Titer-Blue (Promega, cat #G8082). Cell-Titer Blue (3 μL) was added to each well and incubated for 8 hrs at 37° C. The fluorescence signal from each well was read, with an excitation wavelength at 525/10 nm and an emission wavelength of 598/10 nm, using the Viewlux Imager.
(§3) The EC50 values for compounds were calculated by using a four-parameter logistic equation: y=A+((B−A)/(1+((C/x)^D))), where A and B denotes minimal and maximal % inhibition, respectively, C is the EC50, D is the hill slope and x represents compound concentration.

[2] = tested on: HCV genotype 1b (Con1) replicon in HUH-7 cells; assay: HCV replicon luciferase reporter assay, genotype 1b; assay type: cell-based; details: Hepatitis C virus, 72 h, HCV genotype 1b replicon, 3 days incubation, Renilla luciferase
Description: as §1, with “time. […]” for “time.”
as §2, §3

SMILES | EC50 ([1]; range classes) [nM] | EC50 ([2]; range classes) [nM] | EC50 ([1]; numeric values) [nM] | EC50 ([2]; numeric values) [nM]
COc1cnc(O[C@@H]2C[C@H]3C(=O)N[C@]4(C(=O)NS(=O)(=O)C5CC5)C[C@H]4/C=C\[C@H](C)CCC[C@@H](C)[C@H](NC(=O)OC(C)(C)C(F)(F)F)C(=O)N3C2)c2ccccc12 [Compound 3, 1,1,1-trifluoro-2-methylpropan-2-yl (2R,6S,7R,11R,13aS,14aR,16aS,Z)-14a-(cyclopropylsulfonylcarbamoyl)-2-(4-methoxyisoquinolin-1-yloxy)-7,11-dimethyl-5,16-dioxo-1,2,3,5,6,7,8,9,10,11,13a,14,14a,15,16,16a-hexadecahydrocyclopropa[e]pyrrolo[1,2-a][1,4]diazacyclopentadecin-6-ylcarbamate] | 0.2 to 1 | 0.2 to 1 |  | 
COc1cnc(O[C@@H]2C[C@H]3C(=O)N[C@]4(C(=O)NS(=O)(=O)C5CC5)C[C@H]4/C=C\[C@@H](C)CCC[C@@H](C)[C@H](NC(=O)OC(C)(C)C(F)(F)F)C(=O)N3C2)c2ccccc12 [Compound 4, 1,1,1-trifluoro-2-methylpropan-2-yl (2R,6S,7R,11S,13aS,14aR,16aS,Z)-14a-(cyclopropylsulfonylcarbamoyl)-2-(4-methoxyisoquinolin-1-yloxy)-7,11-dimethyl-5,16-dioxo-1,2,3,5,6,7,8,9,10,11,13a,14,14a,15,16,16a-hexadecahydrocyclopropa[e]pyrrolo[1,2-a][1,4]diazacyclopentadecin-6-ylcarbamate] |  |  | 4.9 | 2.8
COc1cnc(O[C@@H]2C[C@H]3C(=O)N[C@]4(C(=O)NS(=O)(=O)C5CC5)C[C@H]4/C=C\[C@H](C)CCC[C@@H](C)[C@H](NC(=O)OC(C)(C)C)C(=O)N3C2)c2cccc(Cl)c12 [Compound 5, tert-butyl (2R,6S,7R,11R,13aS,14aR,16aS,Z)-2-(5-chloro-4-methoxyisoquinolin-1-yloxy)-14a-(cyclopropylsulfonylcarbamoyl)-7,11-dimethyl-5,16-dioxo-1,2,3,5,6,7,8,9,10,11,13a,14,14a,15,16,16a-hexadecahydrocyclopropa[e]pyrrolo[1,2-a][1,4]diazacyclopentadecin-6-ylcarbamate] |  |  | 0.41 | 1.2
COc1cnc(O[C@@H]2C[C@H]3C(=O)N[C@]4(C(=O)NS(=O)(=O)C5CC5)C[C@H]4/C=C\[C@@H](C)CCC[C@@H](C)[C@H](NC(=O)OC(C)(C)C)C(=O)N3C2)c2cccc(Cl)c12 [Compound 6, tert-butyl (2R,6S,7R,11S,13aS,14aR,16aS,Z)-2-(5-chloro-4-methoxyisoquinolin-1-yloxy)-14a-(cyclopropylsulfonylcarbamoyl)-7,11-dimethyl-5,16-dioxo-1,2,3,5,6,7,8,9,10,11,13a,14,14a,15,16,16a-hexadecahydrocyclopropa[e]pyrrolo[1,2-a][1,4]diazacyclopentadecin-6-ylcarbamate] | 1.01 to 2 | 2.01 to 5 |  | 
COc1cnc(O[C@@H]2C[C@H]3C(=O)N[C@]4(C(=O)NS(=O)(=O)C5CC5)C[C@H]4/C=C\[C@H](C)CCC[C@@H](C)[C@H](NC(=O)OC(C)(C)C(F)(F)F)C(=O)N3C2)c2cccc(Cl)c12 [Compound 7, 1,1,1-trifluoro-2-methylpropan-2-yl (2R,6S,7R,11R,13aS,14aR,16aS,Z)-2-(5-chloro-4-methoxyisoquinolin-1-yloxy)-14a-(cyclopropylsulfonylcarbamoyl)-7,11-dimethyl-5,16-dioxo-1,2,3,5,6,7,8,9,10,11,13a,14,14a,15,16,16a-hexadecahydrocyclopropa[e]pyrrolo[1,2-a][1,4]diazacyclopentadecin-6-ylcarbamate] | 1.01 to 2 | 0.2 to 1 |  | 
COc1cnc(O[C@@H]2C[C@H]3C(=O)N[C@]4(C(=O)NS(=O)(=O)C5CC5)C[C@H]4/C=C\[C@@H](C)CCC[C@@H](C)[C@H](NC(=O)OC(C)(C)C(F)(F)F)C(=O)N3C2)c2cccc(Cl)c12 [Compound 8, 1,1,1-trifluoro-2-methylpropan-2-yl (2R,6S,7R,11S,13aS,14aR,16aS,Z)-2-(5-chloro-4-methoxyisoquinolin-1-yloxy)-14a-(cyclopropylsulfonylcarbamoyl)-7,11-dimethyl-5,16-dioxo-1,2,3,5,6,7,8,9,10,11,13a,14,14a,15,16,16a-hexadecahydrocyclopropa[e]pyrrolo[1,2-a][1,4]diazacyclopentadecin-6-ylcarbamate] | 2.01 to 5 | 1.01 to 2 |  | 
COc1ccc2c(O[C@@H]3C[C@H]4C(=O)N[C@]5(C(=O)NS(=O)(=O)C6CC6)C[C@H]5/C=C\[C@H](C)CCC[C@@H](C)[C@H](NC(=O)OC(C)(C)C(F)(F)F)C(=O)N4C3)nccc2c1 [Compound 9, 1,1,1-trifluoro-2-methylpropan-2-yl (2R,6S,7R,11R,13aS,14aR,16aS,Z)-14a-(cyclopropylsulfonylcarbamoyl)-2-(6-methoxyisoquinolin-1-yloxy)-7,11-dimethyl-5,16-dioxo-1,2,3,5,6,7,8,9,10,11,13a,14,14a,15,16,16a-hexadecahydrocyclopropa[e]pyrrolo[1,2-a][1,4]diazacyclopentadecin-6-ylcarbamate] |  |  | 1 | 0.36
COc1ccc2c(O[C@@H]3C[C@H]4C(=O)N[C@]5(C(=O)NS(=O)(=O)C6(CF)CC6)C[C@H]5/C=C\[C@H](C)CCC[C@@H](C)[C@H](NC(=O)OC(C)(C)C)C(=O)N4C3)ncc(OC)c2c1 [Compound 11, tert-butyl (2R,6S,7R,11R,13aS,14aR,16aS,Z)-2-(4,6-dimethoxyisoquinolin-1-yloxy)-14a-(1-(fluoromethyl)cyclopropylsulfonylcarbamoyl)-7,11-dimethyl-5,16-dioxo-1,2,3,5,6,7,8,9,10,11,13a,14,14a,15,16,16a-hexadecahydrocyclopropa[e]pyrrolo[1,2-a][1,4]diazacyclopentadecin-6-ylcarbamate] | 2.01 to 5 | 0.2 to 1 |  | 
COc1ccc2c(O[C@@H]3C[C@H]4C(=O)N[C@]5(C(=O)NS(=O)(=O)C6(CF)CC6)C[C@H]5/C=C\[C@H](C)CCC[C@@H](C)[C@H](NC(=O)OC(C)(C)C(F)(F)F)C(=O)N4C3)ncc(OC)c2c1 [Compound 12] | 2.01 to 5 | 1.01 to 2 |  | 
COc1ccc2c(O[C@@H]3C[C@H]4C(=O)N[C@]5(C(=O)NS(=O)(=O)C6(CF)CC6)C[C@H]5/C=C\[C@@H](C)CCC[C@@H](C)[C@H](NC(=O)OC(C)(C)C(F)(F)F)C(=O)N4C3)ncc(OC)c2c1 [Compound 13] | 5.01 to 68 | 2.01 to 5 |  | 
